Data from ChEMBL document CHEMBL1949551, “Design and synthesis of 8-substituted benzamido-phenylxanthine derivatives as MAO-B inhibitors” (Bioorg Med Chem Lett, 2012).

Columns and labels:
[1] = molecular target: T1, Amine oxidase [flavin-containing] B (Mus musculus, UniProt Q8BW75); test: Inhibition of MAO-B in mouse cerebral homogenate using kynuramine as substrate after 30 mins by fluorimetry in the presence of MOA-A inhibitor clorgyline relative to control; conditions: 0.5 h
T1 sequence (Q8BW75 whole entry): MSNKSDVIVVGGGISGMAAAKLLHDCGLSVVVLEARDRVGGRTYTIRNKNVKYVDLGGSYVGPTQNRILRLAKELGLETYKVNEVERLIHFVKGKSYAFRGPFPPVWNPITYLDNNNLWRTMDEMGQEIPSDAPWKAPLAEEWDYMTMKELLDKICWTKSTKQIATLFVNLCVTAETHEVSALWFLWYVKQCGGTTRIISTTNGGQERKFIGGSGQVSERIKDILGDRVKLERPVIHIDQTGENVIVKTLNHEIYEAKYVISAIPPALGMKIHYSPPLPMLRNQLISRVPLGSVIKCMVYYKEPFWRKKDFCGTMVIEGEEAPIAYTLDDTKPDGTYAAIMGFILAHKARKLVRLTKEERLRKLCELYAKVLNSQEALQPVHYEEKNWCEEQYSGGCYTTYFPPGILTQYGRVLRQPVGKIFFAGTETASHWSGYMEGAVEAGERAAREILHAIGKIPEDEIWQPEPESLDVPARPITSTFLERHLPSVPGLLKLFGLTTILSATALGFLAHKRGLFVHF

[2] = molecular target: T1, Amine oxidase [flavin-containing] B; test: Inhibition of MAO-B in mouse cerebral homogenate using kynuramine as substrate after 30 mins by fluorimetry in the presence of MOA-A inhibitor clorgyline
[3] = molecular target: T1, Amine oxidase [flavin-containing] B; test: Ratio of compound Ki to KW-6002 Ki for MAO-B in mouse cerebral homogenate

inhibition (INH) [1]	IC50 [2]	Ki [2]	Ratio Ki [3]	SMILES
42.3%	13.9 µM	2.77 µM		Cc1ccc(C(=O)Nc2ccc(-c3nc4c([nH]3)c(=O)n(C)c(=O)n4C)cc2)cc1
32.1%	17.2 µM	3.97 µM		COc1ccc(C(=O)Nc2ccc(-c3nc4c([nH]3)c(=O)n(C)c(=O)n4C)cc2)cc1
67.4%	8.9 µM	0.26 µM	42	Cn1c(=O)c2c(nc(-c3ccc(NC(=O)c4ccccc4)cc3)n2C)n(C)c1=O
53.7%	11.3 µM	1.63 µM		Cc1ccc(C(=O)Nc2ccc(-c3nc4c(c(=O)n(C)c(=O)n4C)n3C)cc2)cc1
58.2%	10.7 µM	1.18 µM		COc1ccc(C(=O)Nc2ccc(-c3nc4c(c(=O)n(C)c(=O)n4C)n3C)cc2)cc1
27.9%	18.9 µM	4.21 µM		Cn1c(=O)c2[nH]c(-c3cccc(NC(=O)c4ccccc4)c3)nc2n(C)c1=O
41.6%	14 µM	2.87 µM		Cc1ccc(C(=O)Nc2cccc(-c3nc4c([nH]3)c(=O)n(C)c(=O)n4C)c2)cc1
35.1%	16 µM	3.49 µM		COc1ccc(C(=O)Nc2cccc(-c3nc4c([nH]3)c(=O)n(C)c(=O)n4C)c2)cc1
40.5%	14.5 µM	2.95 µM		Cn1c(=O)c2c(nc(-c3cccc(NC(=O)c4ccccc4)c3)n2C)n(C)c1=O
34.4%	16.7 µM	3.56 µM		Cc1ccc(C(=O)Nc2cccc(-c3nc4c(c(=O)n(C)c(=O)n4C)n3C)c2)cc1
30.8%	17.8 µM	3.92 µM		COc1ccc(C(=O)Nc2cccc(-c3nc4c(c(=O)n(C)c(=O)n4C)n3C)c2)cc1
